# Measurements taken from patent US9994533B2, “Method of preparing ATG's analogue, and the application of ATG and it's analogue” (Longhua Hospital Shanghai University of Traditional Chinese …, priority 2016, dated 2018).
# How the values were obtained:
# [1] = molecular target: T1, Heterogeneous nuclear ribonucleoprotein H2 (Homo sapiens, UniProt P55795); assay: DARTS mass spectrometry of 293T lysate after ATG; assay type: binding; details: ATG 300 μM, pronase 1:1000, HNRH2_HUMAN
# T1 construct: endogenous in cells; host or cells: 293T
# T1 sequence (P55795 1-449): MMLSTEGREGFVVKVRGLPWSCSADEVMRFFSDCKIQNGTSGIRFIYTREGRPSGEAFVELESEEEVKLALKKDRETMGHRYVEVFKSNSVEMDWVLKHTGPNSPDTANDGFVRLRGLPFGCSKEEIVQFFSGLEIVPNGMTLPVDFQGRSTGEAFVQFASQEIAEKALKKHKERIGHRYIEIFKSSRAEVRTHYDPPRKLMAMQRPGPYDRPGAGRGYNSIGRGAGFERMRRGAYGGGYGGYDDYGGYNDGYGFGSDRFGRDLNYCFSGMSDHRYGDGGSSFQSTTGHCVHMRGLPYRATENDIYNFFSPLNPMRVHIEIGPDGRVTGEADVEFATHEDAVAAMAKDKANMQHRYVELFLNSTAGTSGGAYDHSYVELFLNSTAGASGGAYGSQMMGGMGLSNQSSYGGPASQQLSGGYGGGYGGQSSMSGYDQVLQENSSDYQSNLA
# Method: (§1) 293T cells were digested with M-PER mammalian protein extraction buffer (78501 ThermoFisher) and phosphatase inhibitor (50 mM NaF, 10 mM β-glycerophosphate, 5 mM sodium pyrophosphate, 2 mM Na3VO4); and the protein concentration is determined by Bradford method (500-0006 Bio-rad). ATG was either added or not in the cell lysate. If added, the concentration of ATG was 300 μM. The cells were incubated at room temperature for 1 h. The cells were then lysed by incubating for 20 minutes at room temperature with different concentrations of pronase at 1:1000 (10165921001, Roche). The two groups of lysates are subjected to mass spectrometry and then compared.
# [2] = molecular target: T2, Keratin, type II cytoskeletal 5 (Homo sapiens, UniProt P13647); assay: DARTS mass spectrometry of 293T lysate after ATG; assay type: binding; details: ATG 300 μM, pronase 1:1000, K2C5_HUMAN
# T2 construct: endogenous in cells; host or cells: 293T
# T2 sequence (P13647 1-590): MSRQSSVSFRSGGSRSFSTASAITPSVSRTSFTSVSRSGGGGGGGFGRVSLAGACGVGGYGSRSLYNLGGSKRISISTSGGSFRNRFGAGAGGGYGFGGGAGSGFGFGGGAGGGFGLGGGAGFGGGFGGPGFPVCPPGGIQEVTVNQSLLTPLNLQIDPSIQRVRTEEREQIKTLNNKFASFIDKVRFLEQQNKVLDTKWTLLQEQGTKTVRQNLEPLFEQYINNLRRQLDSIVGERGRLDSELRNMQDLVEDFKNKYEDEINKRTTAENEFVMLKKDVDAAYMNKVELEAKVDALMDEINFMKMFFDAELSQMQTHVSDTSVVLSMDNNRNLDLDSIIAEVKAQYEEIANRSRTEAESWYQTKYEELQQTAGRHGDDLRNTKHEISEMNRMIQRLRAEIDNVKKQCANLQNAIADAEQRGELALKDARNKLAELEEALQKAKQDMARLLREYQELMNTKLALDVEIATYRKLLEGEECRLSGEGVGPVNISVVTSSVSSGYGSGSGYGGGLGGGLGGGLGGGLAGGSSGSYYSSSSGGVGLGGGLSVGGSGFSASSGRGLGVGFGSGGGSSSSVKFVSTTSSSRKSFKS
# Method: as §1
# [3] = molecular target: T3, Keratin, type II cytoskeletal 6A (Homo sapiens, UniProt P02538); assay: DARTS mass spectrometry of 293T lysate after ATG; assay type: binding; details: ATG 300 μM, pronase 1:1000, K2C6A_HUMAN
# T3 construct: endogenous in cells; host or cells: 293T
# T3 sequence (P02538 2-564 limits assumed): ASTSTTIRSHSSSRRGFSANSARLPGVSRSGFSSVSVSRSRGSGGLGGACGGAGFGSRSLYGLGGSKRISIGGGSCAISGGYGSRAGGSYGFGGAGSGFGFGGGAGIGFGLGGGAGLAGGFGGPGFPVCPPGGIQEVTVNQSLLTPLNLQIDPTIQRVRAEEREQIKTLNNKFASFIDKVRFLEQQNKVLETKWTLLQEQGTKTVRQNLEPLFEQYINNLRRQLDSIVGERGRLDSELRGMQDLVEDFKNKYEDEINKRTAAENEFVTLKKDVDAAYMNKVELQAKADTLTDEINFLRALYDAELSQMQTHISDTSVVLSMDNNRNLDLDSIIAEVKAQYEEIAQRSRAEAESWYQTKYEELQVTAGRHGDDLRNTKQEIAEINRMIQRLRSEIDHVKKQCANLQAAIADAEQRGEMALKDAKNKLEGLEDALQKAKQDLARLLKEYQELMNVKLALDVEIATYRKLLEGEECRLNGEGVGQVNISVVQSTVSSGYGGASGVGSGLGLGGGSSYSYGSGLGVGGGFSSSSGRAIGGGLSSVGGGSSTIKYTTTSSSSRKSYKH
# Method: as §1
# [4] = test system: NOX4 gene; assay: NOX4 mRNA expression in glomeruli of STZ-eNOS−/− mice (RT-PCR); assay type: in vivo; details: FIG. 5
# Excerpt: The detection method of Western Blot and mRNA used in the present embodiment is a detection method commonly used by person skilled in the art, and the specific detection method is described in “Molecular Biology Laboratory Manual” (People's Military Medical Press, published in 2011 Jun. 1). Further, the mRNA of the glomeruli was extracted and subjected to RT-PCR.
# [5] = test system: NOX; assay: NOX-related ROS induced by high glucose (NADPH oxidative activity, luminescence); assay type: cell-based, human
# Method: The human immortal podocytes were divided into 6 groups: blank group, high glucose group (30 mM), high glucose+10 μMATG, high glucose+20 μMATG, high glucose+50 μMATG, high glucose+100 μMATG.
# The effects of ATG on NOX producing ROS were observed by measuring the oxidative activity of NADPH (reduced coenzyme II): The […] were washed twice with HBSS (Hanks balanced salt solution), during which the cell culture dish was placed on ice. The cells were scraped with frozen HBSS containing protease inhibitors, then homogenated. The protein concentration was measured and calculated. 30 μg protein was added to each well and 25 μM […] (Santa Cruz) and 200 μM NADPH (Cayman Chemical) were also added. After staying in the dark room for 10 minutes at 37° C., the luminescence of each well was measured. Results: There was significant difference of ROS between high glucose group and normal group (P<0.05). The different concentration of ATG (10 μM, 20 μM, 50 μM, 100 μM) could reduce the amount of ROS induced by NOX. See Table 7 and FIG. 10 for the details.
structure (smiles),measurement,setting,value
"COc1cc(C[C@H]2C(=O)OC[C@@H]2Cc2ccc(OC)c(OC)c2)ccc1O [ATG, Arctigenin]",Ratio (ATG/DMSO),[1],6.8
same,Spectral Count (ATG),[1],12
same,Ratio (ATG/DMSO),[2],4.7
same,Spectral Count (ATG),[2],7
same,Ratio (ATG/DMSO),[3],5.2
same,Spectral Count (ATG),[3],8
same,mRNA expression of NOX4 gene in glomeruli,[4],significantly reduced
same,"NOX-related ROS (luminescence), mean",[5]; HG + 10 μM ATG,1030
same,"NOX-related ROS (luminescence), mean",[5]; HG + 20 μM ATG,864
same,"NOX-related ROS (luminescence), mean",[5]; HG + 50 μM ATG,794
same,"NOX-related ROS (luminescence), mean",[5]; HG + 100 μM ATG,832
